{"source": "patent US7968607B2", "about": "“Skin pore minimizers and skin elasticity improvers” (Koa Corporation, priority 2000, dated 2011)", "key": {"[1]": {"test_system": "human skin fibroblasts (derived from a human fore skin)", "assay": "Collagen gel tightening promoting ability (fibroblast-embedded collagen gel, dermis model)", "assay_type": "cell-based", "details": "for activity at 15 µM / activity at 50 µM: read-out: Average gel volume", "procedure": "Measurement was conducted on the ability to promote the tightening of a fibroblast-embedded collagen gel as a dermis model. The collagen gel was prepared following the procedure reported in a publication [J. Cell Science, 102, 315 (1992) or J. Invest. Dermatol., 93, 792 (1989)]. Described specifically, a solution of HEPES (250 mM) in a 0.05 N sodium hydroxide solution, a 5-fold concentrate of DMEM (“GIBCO DMEM”, low glucose), FCS (2%, Fetal Calf Serum) and purified water were added under ice cooling to a collagen gel solution (product of Nitta Gelatin Inc., “type 1-A” (3.0 mg/mL, pH=3)), and finally, a suspension of human skin fibroblasts (derived from a human fore skin) was added. After the resulting mixture was thoroughly stirred to eliminate bubbles, 600 μL per well was added to 24-well dishes, followed by immediate warming at 37° C. in an incubator to effect gelation. Three to four hours later, 1 mL of serum-free DMEM medium was added to each of the wells, and the gels were separated at peripheries thereof from the corresponding dishes and were brought into a floating state. Eighteen hours after that, the medium was replaced with serum-free DMEM media which contained 100 to 10 μM of test substances, respectively, and incubation was conducted further for 48 hours.\nVolume measurement of the gels was conducted by a weight measuring method similar to that reported in the publication [J. Cell Science, 102, 315 (1992)]. Described specifically, subsequent to immobilization with 10% formalin (4° C., 24 hours), the surface tension of water was reduced by the addition of Triton X100 (product of Wako Pure Chemical Industries) (1%), and the weights were measured.\nMeasurement results of relative volumes for the respective compounds as calculated supposing that the volume of the control was 100% are presented in Table 3."}, "[2]": {"test_system": "keratinocytes (\"NHEK 6306\", Clonetics)", "assay": "Contraction of collagen gel seeded with keratinocytes", "assay_type": "cell-based, human", "details": "1 hour after addition, area inside contracted ring, control (gel peeling alone) = 100", "procedure": "• 1) After type I collagen (“Cellmatrix Type I-A”, Nitta Gelatin), “MCDB 153 medium” (Sigma Chemical Co.), 20 mM HEPES (Wako Pure Chemical Industries) and purified water were thoroughly mixed under ice cooling, 500 μL per well were added to a 24-well plate (Falcon), followed by warming at 37° C. in an incubator to effect gelation. Using MCDB 153 medium, 1 mL aliquots of keratinocytes (“NHEK 6306”, Clonetics) were seeded at 2×10^4 cells/cm^2 onto the collagen gels, respectively. Subsequent to incubation for 24 hours, the collagen gels were peeled off with a pipette tip from the culture dishes. Shortly after that, test substances prepared to a concentration as high as 100 times the final concentration were added 10 μL by 10 μL. Upon elapsed time of 1 hour after the addition, the gels were photographed using a “Minolta α707-si Camera” with “50 Macrolens”. Subsequent to development of the pictures, contracted rings were copied onto OHP sheets, the areas inside the contracted rings were determined by image analysis software, “Image-Pro PLUS” (Media Cybanetics, Inc.), and contraction ratios (%) were calculated supposing that the contraction ratio (%) of a control (gel peeling alone) was 100."}, "[3]": {"test_system": "ear skin pores of New Zealand white rabbits", "assay": "Rabbit ear skin pore size after topical application", "assay_type": "in vivo", "details": "2% solution in ethanol, 8 weeks", "procedure": "Three of New Zealand white rabbits (male, about 2.5 kg) which ear skin pores were conspicuous were used. A 2% solution of Compound 9 (solvent: ethanol) was applied onto the left ear of each rabbit, and the solvent was applied onto the right ear of the rabbit as a control site, each on the inner side of the ala, twice a day, 150 μL each time.\nUpon elapsed time of 8 weeks after the initiation of the application, the skin was collected, and the size of skin pores was measured by image analysis. Described specifically, each rabbit was sacrificed and then, his ears were collected. A scalpel was inserted into each ear sample around the applied site, and the skin was peeled off above the cartilage. At that time, care was exercised to avoid stretching of the skin. The skin was spread over a cork board and then, subjected to biopsy with a punch of 6 mm in diameter to collect the skin from six (6) locations on each ear. The collection was conducted such that skin samples were obtained from the same locations on both the left and right ears. […] On the image, the areas of the individual skin pores were measured, so that the skin pore area on each punched skin sample was calculated. An average of the skin pore areas on the six punched skin samples was recorded as the size of skin pores on the corresponding ear sample of the corresponding rabbit."}, "[4]": {"details": "Homo sapiens, Skin fibroblast, 15 μM, 48 hours, relative volume, control = 100%"}, "[5]": {"details": "Homo sapiens, Skin fibroblast, 50 μM, 48 hours, relative volume, control = 100%"}, "[6]": {"details": "Homo sapiens, Skin fibroblast, 48 h"}, "[7]": {"details": "15 μM, 48 hours, relative volume, control = 100%"}, "[8]": {"details": "50 μM, 48 hours, relative volume, control = 100%"}}, "note": "Structures can show the parent of a compound that is named as a salt. Where two headings read alike, the source gives them in different places."}
{"molecule": "CCCCCCCCCCCCCCOCC(O)COP(=O)(O)O", "note": "(centres unmarked) [Compound 6, 1-tetradecylglycerol-3-phosphate disodium salt]", "values": [{"measurement": "activity at 15 µM", "setting": "[1]; [4]", "value": 91, "unit": "%"}, {"measurement": "activity at 50 µM", "setting": "[1]; [5]", "value": 88, "unit": "%"}]}
{"molecule": "CCCCCCCCCC(CCCCCCC)COCC(O)COP(=O)([O-])[O-].[Na+].[Na+]", "note": "(centres unmarked) [Compound 28, 1-(2-heptylundecyl)glycerol-3-phosphate disodium salt]", "values": [{"measurement": "Contraction ratio (%)", "setting": "[2]; 10 μM", "value": 48.3, "unit": "%"}]}
{"molecule": "CCCCCCCCCCCCCCCCOCC(O)COP(=O)(O)O", "note": "(centres unmarked) [Compound 7, 1-hexadecylglycerol-3-phosphate disodium salt]", "values": [{"measurement": "activity at 15 µM", "setting": "[1]; [4]", "value": 94, "unit": "%"}, {"measurement": "activity at 50 µM", "setting": "[1]; [5]", "value": 79, "unit": "%"}]}
{"molecule": "CCCCCCCCCCCCCCO[C@@H]1O[C@H](COS(=O)(=O)[O-])[C@H](O)[C@H](O)[C@H]1O.[Na+]", "note": "[Compound 24, 1-β-O-tetradecylgalactopyranoside-6-sulfate sodium salt]", "values": [{"measurement": "Contraction ratio (%)", "setting": "[2]; 10 μM", "value": 84.9, "unit": "%"}]}
{"molecule": "octylglucopyranosidesulfate sodium salt mixture [Compound 18]", "values": [{"measurement": "Contraction ratio (%)", "setting": "[2]; 50 μM", "value": 90.1, "unit": "%"}]}
{"molecule": "1-(2-decyltetradecyl)glycerol-3-phosphate monoarginine salt [Compound 41]", "values": [{"measurement": "Contraction ratio (%)", "setting": "[2]; 10 μM", "value": 87.3, "unit": "%"}]}
{"molecule": "1-(2-octyldodecyl)-glycerol-3-phosphate monoarginine salt [Compound 34]", "values": [{"measurement": "Contraction ratio (%)", "setting": "[2]; 10 μM", "value": 67.3, "unit": "%"}]}
{"molecule": "CCCCCCCCCCCCOCC(O)COP(=O)(O)O", "note": "(centres unmarked) [Compound 5, 1-dodecylglycerol-3-phosphate disodium salt]", "values": [{"measurement": "activity at 15 µM", "setting": "[1]; [6]", "value": 94, "unit": "%"}, {"measurement": "activity at 50 µM", "setting": "[1]; [6]", "value": 83, "unit": "%"}]}
{"molecule": "CC(C)CCCCCCCCCCCCCCCC(O)[C@@H](O)[C@@H](O)[C@H](O)[C@@H](CO)OS(=O)(=O)[O-].[Na+]", "note": "(some centres unmarked) [Compound 30, 1-isostearylmannitol-5-sulfate sodium salt]", "values": [{"measurement": "Contraction ratio (%)", "setting": "[2]; 10 μM", "value": 56.8, "unit": "%"}]}
{"molecule": "CC(C)CCCCCCCCCCCCCCCC(O)[C@@H](O)[C@@H](O)[C@H](O)[C@@H](CO)OP(=O)([O-])[O-].[Na+].[Na+]", "note": "(some centres unmarked) [Compound 29, 1-isostearylmannitol-5-phosphate disodium salt]", "values": [{"measurement": "Contraction ratio (%)", "setting": "[2]; 10 μM", "value": 53.3, "unit": "%"}]}
{"molecule": "CCCCCCCCCCCCCCCCCCOCC(O)COP(=O)([O-])[O-].[Na+].[Na+]", "note": "(centres unmarked) [Compound 8, 1-octadecylglycerol-3-phosphate disodium salt]", "values": [{"measurement": "Contraction ratio (%)", "setting": "[2]; 50 μM", "value": 77.0, "unit": "%"}, {"measurement": "activity at 15 µM", "setting": "[1]; [6]", "value": 93, "unit": "%"}, {"measurement": "activity at 50 µM", "setting": "[1]; [6]", "value": 77, "unit": "%"}]}
{"molecule": "CCCCCCCCCCCCCCCCCCOCC(O)COS(=O)(=O)O", "note": "(centres unmarked) [Compound 2, 1-octadecylglycerol-3-sulfate sodium salt]", "values": [{"measurement": "activity at 10 µM", "setting": "[1]; Homo sapiens, Skin fibroblast, 10 μM, 48 hours, relative volume, control = 100%", "value": 97, "unit": "%"}, {"measurement": "activity at 30 µM", "setting": "[1]; Homo sapiens, Skin fibroblast, 30 μM, 48 hours, relative volume, control = 100%", "value": 92, "unit": "%"}]}
{"molecule": "CC(C)CCCCCCCCCCCCCCCOCC(O)COP(=O)([O-])[O-].[Na+].[Na+]", "note": "(centres unmarked) [Compound 9, 1-isostearylglycerol-3-phosphate disodium salt]", "values": [{"measurement": "Contraction ratio (%)", "setting": "[2]; 50 μM", "value": 62.3, "unit": "%"}, {"measurement": "skin pore area", "setting": "[3]; 150 μL twice a day on ear, control sites 0.022 mm^2", "value": 0.015, "unit": "mm^2"}, {"measurement": "smaller in skin pore area than the control sites", "setting": "[3]; twice a day, versus solvent-applied ear", "value": "about 30%"}]}
{"molecule": "1-(2-heptylundecyl)-glycerol-3-phosphate monoarginine salt [Compound 32]", "values": [{"measurement": "Contraction ratio (%)", "setting": "[2]; 10 μM", "value": 52.2, "unit": "%"}, {"measurement": "Average gel volume", "setting": "[1]; [7]", "value": 92, "unit": "%"}, {"measurement": "Average gel volume", "setting": "[1]; [8]", "value": 75, "unit": "%"}]}
{"molecule": "CCCCCCCCCCCCCCO[C@H]1O[C@H](COS(=O)(=O)[O-])[C@H](O)[C@H](O)[C@H]1O.[Na+]", "note": "[Compound 23, 1-α-O-tetradecylgalactopyranoside-6-sulfate sodium salt]", "values": [{"measurement": "Contraction ratio (%)", "setting": "[2]; 10 μM", "value": 60.7, "unit": "%"}]}
{"molecule": "CCCCCCCCCCCCO[C@@H]1O[C@H](COS(=O)(=O)[O-])[C@@H](O)[C@H](O)[C@H]1O.[Na+]", "note": "[Compound 14, 1-β-O-dodecylglucopyranoside-6-sulfate sodium salt]", "values": [{"measurement": "Contraction ratio (%)", "setting": "[2]; 50 μM", "value": 90.0, "unit": "%"}]}
{"molecule": "1-isostearylglycerol-3-phosphate monoarginine salt [Compound 31-B]", "values": [{"measurement": "Contraction ratio (%)", "setting": "[2]; 10 μM", "value": 56.7, "unit": "%"}]}
{"molecule": "1-dodecylpropanediol-3-phosphate disodium salt [Compound 26]", "values": [{"measurement": "Contraction ratio (%)", "setting": "[2]; 1 μM", "value": 73.5, "unit": "%"}]}
{"molecule": "1-hexadecylglycerol-3-phosphate monoarginine salt [Compound 38]", "values": [{"measurement": "Contraction ratio (%)", "setting": "[2]; 10 μM", "value": 81.4, "unit": "%"}]}
{"molecule": "dodecylglucopyranosidephosphate disodium salt mixture [Compound 27]", "values": [{"measurement": "Contraction ratio (%)", "setting": "[2]; 10 μM", "value": 67.0, "unit": "%"}]}
{"molecule": "1-isostearylglycerol-3-phosphate monoarginine salt [Compound 31-A]", "values": [{"measurement": "Contraction ratio (%)", "setting": "[2]; 10 μM", "value": 56.6, "unit": "%"}, {"measurement": "Average gel volume", "setting": "[1]; [7]", "value": 94, "unit": "%"}, {"measurement": "Average gel volume", "setting": "[1]; [8]", "value": 79, "unit": "%"}]}
{"molecule": "1-(2-hexyldecyl)-glycerol-3-phosphate monoarginine salt [Compound 33]", "values": [{"measurement": "Contraction ratio (%)", "setting": "[2]; 10 μM", "value": 63.4, "unit": "%"}]}
{"molecule": "CCCCCCCCCCCCOCCCOS(=O)(=O)[O-].[Na+]", "note": "[Compound 25, 1-dodecylpropanediol-3-sulfate sodium salt]", "values": [{"measurement": "Contraction ratio (%)", "setting": "[2]; 10 μM", "value": 88.0, "unit": "%"}]}
{"molecule": "1-(2-dodecylhexadecyl)-glycerol-3-phosphate monoarginine salt [Compound 42]", "values": [{"measurement": "Contraction ratio (%)", "setting": "[2]; 10 μM", "value": 87.7, "unit": "%"}]}
{"molecule": "1-dodecylglycerol-3-phosphate monoarginine salt [Compound 36]", "values": [{"measurement": "Contraction ratio (%)", "setting": "[2]; 10 μM", "value": 71.3, "unit": "%"}]}
{"molecule": "1-oleylglycerol-3-phosphate monoarginine salt [Compound 40]", "values": [{"measurement": "Contraction ratio (%)", "setting": "[2]; 10 μM", "value": 63.0, "unit": "%"}]}
{"molecule": "1-tetradecylglycerol-3-phosphate monoarginine salt [Compound 37]", "values": [{"measurement": "Contraction ratio (%)", "setting": "[2]; 10 μM", "value": 63.3, "unit": "%"}]}
{"molecule": "1-[2-(1,3,3-trimethylbutyl)-5,7,7-trimethyloctyl]-glycerol-3-phosphate monoarginine salt [Compound 35]", "values": [{"measurement": "Contraction ratio (%)", "setting": "[2]; 10 μM", "value": 66.9, "unit": "%"}]}
{"molecule": "1-octadecylglycerol-3-phosphate monoarginine salt [Compound 39]", "values": [{"measurement": "Contraction ratio (%)", "setting": "[2]; 10 μM", "value": 70.2, "unit": "%"}]}
